Results taken from ChEMBL document CHEMBL4219152, “Design, synthesis, biological evaluation, homology modeling and docking studies of (E)-3-(benzo[d][1,3]dioxol-5-ylmethylene) pyrrolidin-2-one derivatives as potent anticonvulsant agents” (Bioorg Med Chem Lett, 2018).
The source made the active and inactive calls. The rule behind the calls is not given here.

Assays:
Mus musculus [1] = test: Anticonvulsant activity in Kunming mouse assessed as protection against subcutaneously injected metrazol-induced seizures at 300 mg/kg, ip after 4 hrs; format: functional, organism-based
Mus musculus [2] = test: Anticonvulsant activity in ip dosed Kunming mouse assessed as minimum dose required to protect maximal electroshock-induced seizures in mouse measured after 4 hrs; format: functional; details: read-out: MED
Mus musculus [3] = test: Anticonvulsant activity in ip dosed Kunming mouse assessed as protection against subcutaneously injected metrazol-induced seizures after 0.5 hrs; format: functional; details: read-out: MED
Mus musculus [4] = species on record: Mus musculus; test: Neurotoxicity in Kunming mouse assessed as motor impairment by measuring reduction in time spent on rotarod after 0.5 hrs by rotarod test; format: toxicity, organism-based; details: in vivo
Mus musculus [5] = species on record: Mus musculus; test: Neurotoxicity in Kunming mouse assessed as motor impairment by measuring reduction in time spent on rotarod after 4 hrs by rotarod test; format: toxicity, organism-based; details: in vivo
Mus musculus [6] = test: Anticonvulsant activity in Kunming mouse assessed as protection against maximal electroshock-induced seizures in mouse at 300 mg/kg, ip measured after 0.5 hrs; format: functional, organism-based
Mus musculus [7] = test: Anticonvulsant activity in ip dosed Kunming mouse assessed as minimum dose required to protect maximal electroshock-induced seizures in mouse by measuring time to peak effect; format: functional
Mus musculus [8] = test: Anticonvulsant activity in ip dosed Kunming mouse assessed as minimum dose required to protect maximal electroshock-induced seizures in mouse measured after 0.5 hrs; format: functional; details: read-out: MED
Mus musculus [9] = test: Anticonvulsant activity in ip dosed Kunming mouse assessed as protection against maximal electroshock-induced seizures; format: functional
Mus musculus [10] = test: Anticonvulsant activity in Kunming mouse assessed as protection against subcutaneously injected metrazol-induced seizures at 300 mg/kg, ip measured after 0.5 hrs; format: functional, organism-based
[11] = Protection index, ratio of TD50 for neurotoxicity by motor impairment in Kunming mouse to ED50 for protection against maximal electroshock-induced seizures in ip dosed Kunming mouse; format: toxicity, organism-based; details: in vivo, read-out: Ratio TD50/ED50
[12] = Neurotoxicity in ip dosed Kunming mouse assessed as motor impairment by measuring reduction in time spent on rotarod; format: toxicity, organism-based; details: in vivo
Mus musculus [13] = test: Anticonvulsant activity in Kunming mouse assessed as protection against maximal electroshock-induced seizures in mouse at 300 mg/kg, ip measured after 4 hrs; format: functional, organism-based
Nav1.1 = Nav1.1 (Homo sapiens, UniProt P35498); test: Inhibition of human Nav1.1 expressed in CHO-K1 cells assessed as state-dependent block at 10 uM at holding potential of -120 mV incubated for 30 mins prior to testing measured every 20 seconds by whole-cell patch clamp method; format: cell-based; details: CHO-K1 cells expressing human Nav1.1
[14] = target: Sodium channel protein type 1 subunit alpha (Homo sapiens) (UniProt P35498); test: Inhibition of human Nav1.1 expressed in CHO-K1 cells assessed as use-dependent block at 10 uM at holding potential of -120 mV incubated for 30 mins prior to testing measured every 20 seconds by whole-cell patch clamp method; format: cell-based

Structure (SMILES) | Activity (Mus musculus [1]) | minimal effective dose (Mus musculus [2]) [mg/kg] | minimal effective dose (Mus musculus [3]) [mg/kg] | MLD (Mus musculus [4]) [mg/kg] | MLD (Mus musculus [5]) [mg/kg] | Activity (Mus musculus [6]) | Time (Mus musculus [7]) [h] | minimal effective dose (Mus musculus [8]) [mg/kg] | ED50 (Mus musculus [9]) [mg/kg] | Activity (Mus musculus [10]) | selectivity ratio [11] | TD50 [12] [mg/kg] | Activity (Mus musculus [13]) | inhibition at 0.5 h, 10 µM (Nav1.1) [%] | inhibition [14] [%]
Cc1ccccc1CN1CC/C(=C\c2ccc3c(c2)OCO3)C1=O | inactive | 30 | 100 | 300 | 300 | inactive | – | – | – | – | – | – | – | – | –
O=C1/C(=C/c2ccc3c(c2)OCO3)CCN1Cc1ccccc1F | inactive | 30 | – | 300 | 300 | – | 1 | 30 | 5.6 | inactive | 42.6 | 238 | – | – | –
O=C1/C(=C/c2ccc3c(c2)OCO3)CCN1Cc1ccc(F)cc1 | inactive | – | – | 300 | 300 | – | – | 30 | – | inactive | – | – | inactive | – | –
Cc1ccc(CN2CC/C(=C\c3ccc4c(c3)OCO4)C2=O)cc1 | inactive | 30 | – | 300 | 300 | – | 1 | 30 | 6.3 | inactive | 26.5 | 167 | – | – | –
O=C1NC(=O)C(c2ccccc2)(c2ccccc2)N1 [PHENYTOIN] | inactive | 30 | – | 100 | 100 | – | 2 | 30 | – | inactive | – | – | – | – | –
O=C1NCC/C1=C\c1ccc2c(c1)OCO2 | inactive | 100 | – | 300 | 300 | – | 1 | 30 | 17.3 | inactive | 10.4 | 179 | – | – | –
O=C1/C(=C/c2ccc3c(c2)OCO3)CCN1Cc1cccc(C(F)(F)F)c1 | inactive | 30 | – | 300 | 300 | – | 1 | 30 | 4.3 | inactive | 37.4 | 161 | – | 19.5 | 99.9
CC(C)(C)c1ccc(CN2CC/C(=C\c3ccc4c(c3)OCO4)C2=O)cc1 | inactive | 100 | – | 300 | 300 | – | – | 100 | – | inactive | – | – | – | – | –
O=C1/C(=C/c2ccc3c(c2)OCO3)CCN1Cc1cccc(F)c1 | inactive | 30 | – | 300 | 300 | inactive | – | – | – | inactive | – | – | – | – | –
O=C1/C(=C/c2ccc3c(c2)OCO3)CCN1Cc1c(F)cccc1F | inactive | 100 | – | 300 | 300 | – | – | 100 | – | inactive | – | – | – | – | –
CCC1(c2ccccc2)C(=O)NC(=O)NC1=O [PHENOBARBITAL] | – | – | – | – | – | – | 1 | – | 21.8 | – | – | – | – | – | –
O=C1/C(=C/c2ccc3c(c2)OCO3)CCN1Cc1ccccc1Cl | inactive | – | 100 | 300 | 300 | inactive | – | – | – | – | – | – | inactive | – | –
